Source: patent publication US9902776B2, “Anti-EGFR antibody and anti-c-Met/anti-EGFR bispecific antibodies comprising the same” (Samsung Electronics Co., Ltd., priority 2013, dated 2018)

Legend:
[1] = test system: SNU5 cells; assay: SNU5 xenograft tumor model in CB.17-SCID mice; type: in vivo; conditions: intravenous, 4 weeks; antibodies 1 mg/kg once a week, Irinotecan 10 mg/kg twice a week; initial size 100 mm^3
Procedure: SNU5 cells (ATCC) were injected into dorsal subcutis of 5-6 week old CB.17-SCID mice (Shanghai SLAC Laboratory Animal Co. Ltd.) at the amount of 3×10^6 cell/mouse, to prepare tumor models. When the tumor volume reaches 100 mm^3, 1 mg/kg of L3-1Y-IgG2 and 1 mg/kg of anti-c-Met/anti-EGFR bispecific antibody ME22S were intravenously administered alone or in combination once a week for 4 weeks in total. A group where PBS is intravenously administered thereto was used as a negative control, and a group where 10 mg/kg of an anticancer drug, Irinotecan (Pfizer Inc.), was intravenously administered thereto twice a week for 4 weeks in total, was used as a positive control. The tumor size (length×breadth×height) was measured twice each week, and at the last week, the mice were autopsied.

[2] = target: c-Met (Homo sapiens, UniProt P08581); assay: Specificity of expressed scFv of huAbF46; type: binding; set-up: endogenous in cells; host or cells: SNU638 (A8, A11); MKN45 (A11); conditions: after expression
c-Met, sequence (P08581 25-1390): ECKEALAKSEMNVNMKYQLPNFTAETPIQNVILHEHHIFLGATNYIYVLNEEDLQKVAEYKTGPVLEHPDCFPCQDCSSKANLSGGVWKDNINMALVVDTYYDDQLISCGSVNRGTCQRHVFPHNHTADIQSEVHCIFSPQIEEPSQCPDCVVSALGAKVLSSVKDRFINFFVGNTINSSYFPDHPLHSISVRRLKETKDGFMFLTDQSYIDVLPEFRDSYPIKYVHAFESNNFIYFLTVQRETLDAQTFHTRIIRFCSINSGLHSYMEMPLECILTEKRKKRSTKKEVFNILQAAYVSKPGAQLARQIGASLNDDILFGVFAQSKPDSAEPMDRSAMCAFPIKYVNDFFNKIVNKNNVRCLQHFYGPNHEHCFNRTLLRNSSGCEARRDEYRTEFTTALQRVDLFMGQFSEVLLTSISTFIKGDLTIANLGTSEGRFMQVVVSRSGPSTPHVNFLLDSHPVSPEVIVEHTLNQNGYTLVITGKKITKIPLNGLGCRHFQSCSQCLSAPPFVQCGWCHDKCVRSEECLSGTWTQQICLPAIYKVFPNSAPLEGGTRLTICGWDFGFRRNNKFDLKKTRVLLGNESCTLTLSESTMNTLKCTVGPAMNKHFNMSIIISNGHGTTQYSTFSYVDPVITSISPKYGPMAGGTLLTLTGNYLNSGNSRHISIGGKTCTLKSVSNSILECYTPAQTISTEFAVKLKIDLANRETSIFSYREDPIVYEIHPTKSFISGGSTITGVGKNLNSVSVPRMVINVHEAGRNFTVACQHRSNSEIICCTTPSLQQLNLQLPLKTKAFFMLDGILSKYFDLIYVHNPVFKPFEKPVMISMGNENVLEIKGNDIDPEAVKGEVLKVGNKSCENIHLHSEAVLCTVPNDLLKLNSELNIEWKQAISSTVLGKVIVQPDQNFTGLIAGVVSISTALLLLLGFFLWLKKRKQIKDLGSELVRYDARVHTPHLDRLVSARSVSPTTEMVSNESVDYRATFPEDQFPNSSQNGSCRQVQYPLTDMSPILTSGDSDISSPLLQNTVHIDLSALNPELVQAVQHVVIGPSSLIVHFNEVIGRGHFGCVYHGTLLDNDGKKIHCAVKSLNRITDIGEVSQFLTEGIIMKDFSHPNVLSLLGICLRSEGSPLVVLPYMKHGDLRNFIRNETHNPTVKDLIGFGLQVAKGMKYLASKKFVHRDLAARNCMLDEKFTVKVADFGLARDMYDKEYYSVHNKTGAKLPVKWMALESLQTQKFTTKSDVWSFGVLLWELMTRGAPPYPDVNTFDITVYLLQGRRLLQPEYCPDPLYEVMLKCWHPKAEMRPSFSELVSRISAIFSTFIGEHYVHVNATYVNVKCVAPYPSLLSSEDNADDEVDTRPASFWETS
Text: For use in constructing an scFv of the huAbF46 antibody from the heavy and light chain variable regions of the huAbF46 antibody, a gene was designed to have the structure of “VH-linker-VL” for each of the heavy and the light chain variable region, with the linker including the amino acid sequence “[…]” (SEQ ID NO: 54). A polynucleotide sequence (SEQ ID NO: 55) encoding the designed scFv of huAbF46 was synthesized in Bioneer and an expression vector for the polynucleotide had the nucleotide sequence of SEQ ID NO: 56.

## CCc1c2c(nc3ccc(OC(=O)N4CCC(N5CCCCC5)CC4)cc13)-c1cc3c(c(=O)n1C2)COC(=O)[C@]3(O)CC [Irinotecan, reference compound]
[1]
  final tumor size: about 72 mm^3

B1: scFv of huAbF46: scFv of huAbF46, structure VH-linker-VL with linker SEQ ID NO: 54 (protein)
scFv: EVQLVESGGGLVQPGGSLRLSCAASGFTFTDYYMSWVRQAPGKGLEWLGFIRNKANGYTTEYSASVKGRFTISRDNSKNTLYLQMNSLRAEDTAVYYCARDNWFAYWGQGTLVTVSSGLGGLGGGGSGGGGSGGSSGVGSDIQMTQSPSSLSASVGDRVTITCKSSQSLLASGNQNNYLAWHQQKPGKAPKMLIIWASTRVSGVPSRFSGSGSGTDFTLTISSLQPEDFATYYCQQSYSAPLTFGQGTKVEIKR
[2]
  specificity to c-Met: exhibit specificity to c-Met
